Reference: paper PMC12724307, “Characterization of the initial degradation mechanism involved in C-glycosylated isoflavone puerarin in soil microorganism” (Applied and Environmental Microbiology, 2025)

Tested on: T1, PurA
T1 construct: ORF of 1,551 nt, pET24a(+), His-tagged, E. coli Rosetta2 (DE3), Ni-column; calculated 55,563 Da; monomer
Test: peroxidase-coupled H2O2 assay (DAOS/4-aminoantipyrine)
Format: biochemical, Paenarthrobacter sp. No. 37
Conditions: oxygen as electron acceptor; Tris-HCl pH 8.0; 28°C; apparent steady-state constants

## O=c1c(-c2ccc(O)cc2)coc2c([C@@H]3O[C@H](CO)[C@@H](O)[C@H](O)[C@H]3O)c(O)ccc12 [compound 1, puerarin]
  Km: 43.4 ± 6.6 µM
